# From paper PMC11054274, “Dual Antitubercular and Antileishmanial Profiles of Quinoxaline Di-N-Oxides Containing an Amino Acidic Side Chain” (Pharmaceuticals, 2024)
# Where two headings read alike, the source gives them in different places.
# Key:
# [1] = test system: Mycobacterium tuberculosis H37Rv; assay: In vitro activity against Mycobacterium tuberculosis H37Rv, microdilution AlamarBlue broth assay (BacTiter-Glo alternative read-out); format: cell-based; settings: for IC90: read-out: IC90, antibacterial activity against Mtb H37Rv
# [2] = test system: Leishmania amazonensis promastigotes; assay: Promastigote susceptibility assay (resazurin), L. amazonensis; format: cell-based; settings: for IC50: Table S2, 48 h, read-out: L. amazonensis IC50 (promastigote); for IC50 / activity against L. amazonensis (in words): promastigotes; for L. amazonensis promastigote selectivity index (SI): SI = CC50 (J774 macrophages)/IC50
# Method: (§1) The following species of Leishmania were used: L. donovani (MHOM/IN/80/DD8), which was purchased (ATCC, Manassas, VA, USA), and L. amazonensis (MHOM/Br/79/Maria), which was kindly provided by Prof. Alfredo Toraño (Instituto de Salud Carlos III, Madrid, Spain). Promastigotes were cultured in Schneider’s Insect Medium supplemented with 10% heat-inactivated Fetal Bovine Serum (FBS) (SIGMA-Merck, Madrid, Spain) and 1000 U/L of penicillin plus 100 mg/L of streptomycin in 25 mL culture flasks at 26 °C.
# (§2) The activity of the compounds on Leishmania promastigotes was performed according to the method previously reported by us. Briefly, promastigotes (2.5 × 10^5 parasites/well) were cultured in 96-well plastic plates. The compounds were dissolved in dimethylsulfoxide (DMSO). Serial dilutions at 1:2 of the test compounds in fresh culture medium were performed (100, 50, 25, 12.5, 6.25, 3.12, 1.56 and 0.78 µg/mL) in a final volume of 200 µL; the solutions were then added to the parasite suspension. After an incubation period of 48 h at 26 °C, a volume of 20 μL of 2.5 mM resazurin solution in PBS was added and the plates were incubated for 3 h under the same conditions. Finally, the Relative Fluorescence Unit (RFU) (535ex–590em nm wavelength) was determined in a fluorimeter (Infinite 200 Tecan i-Control). Growth inhibition (%) was calculated by 100—[(RFU treated wells—RFU signal-to-noise)/(RFU untreated—RFU signal-to-noise) × 100]. All tests were carried out in triplicate and the IC50 was calculated by probit analysis using SPSS 17.0 Statistics Software. Miltefosine (Sigma-Merck, Madrid, Spain) was used as the reference drug.
# J774 murine macrophages = assay: Cytotoxicity assay on macrophages (resazurin); format: cell-based; settings: for CC50: 24 h exposure, read-out: Toxicity against J774 macrophages CC50
# Method: (§3) J774 murine macrophages were grown in RPMI-1640 medium (Sigma) supplemented with 10% heat-inactivated FBS (30 min at 56 °C) (SIGMA-Merck), penicillin G (100 U/mL) and streptomycin (100 µg/mL). For the experiments, cells in the pre-confluence phase were harvested with trypsin. Cell cultures were maintained at 37 °C in a humidified environment with 5% CO2.
# (§4) Cell viability was evaluated using a modification with resazurin of the colorimetric method described previously. J774 macrophages were seeded (5 × 10^4 cells/well) in 96-well flat-bottom microplates with 100 µL of RPMI-1640 medium. The cells were allowed to adhere for 4 h at 37 °C in 5% CO2, then different concentrations of the test compounds in 100 µL of the medium were added and exposed for 24 h. Growth controls were also included. To evaluate cell viability, 20 µL of a 2.5 mM resazurin solution was added and the plates were returned to the incubator for another 3 h. The reduction in resazurin was determined by measuring the fluorescence intensity (excitation wavelength, 535 nm; emission wavelength, 590 nm). Each concentration was assayed three times. The medium and controls were used in each test as blanks. The cytotoxic effect of the compounds was defined as the 50% reduction in cell viability of treated culture cells with respect to the untreated culture (CC50).
# [3] = test system: Leishmania donovani promastigotes; assay: Promastigote susceptibility assay (resazurin), L. donovani; format: cell-based; settings: for IC50: Table S2, 48 h; for IC50 / activity against L. donovani (in words): promastigotes
# Method: as §1, §2
# [4] = test system: Leishmania amazonensis amastigotes; assay: Intracellular amastigote assay in J774 macrophages, L. amazonensis; format: cell-based; settings: Table S3; intracellular amastigotes, 48 h; read-out: L. amazonensis IC50 (amastigote)
# Method: We performed an intracellular amastigote assay on L. amazonensis and L. donovani according to a fluorometric method reported by us. To carry out the in vitro macrophage infections, 5 × 10^4 cells were cultured in RPMI-1640 medium and then were infected with 5 × 10^5 promastigotes. In the L. donovani assays, the plates were incubated for 48 h at 37 °C, while in the L. amazonensis assays, they were incubated at 33 °C for the first 24 h and then the temperature was increased to 37 °C for the next 24 h. After, the culture medium was removed and the cells were washed with buffered RPMI-HEPES at pH 7.4 several times in order to eliminate the non-internalized promastigotes. A total of 100 µL of fresh medium tempered at 37 °C was added to the infected cells, which then were exposed to 100 µL of the test compounds in RPMI-1640 at different concentrations (100, 50, 25, 12.5, 6.25, 3.12, 1.56 and 0.78 µg/mL in a final volume of 200 µL) for 48 h at 37 °C. The culture medium was removed by centrifugation at 3500 rpm for 5 min (Centrifuge 5403 Eppendorf) and a lysis solution (0.02% sodium dodecyl sulfate in RPMI-HEPES) was added. After 20 min, the treated cells were harvested (centrifugation at 3500 rpm for 5 min at 4 °C) and the supernatants were replaced by 200 μL of fresh Schneider’s culture medium. The plates were then incubated at 26 °C for another 3 days to allow for the transformation of viable amastigotes into promastigotes and proliferation. Afterwards, 20 μL/well of 2.5 mM resazurin was added and incubated for another 3 h. Finally, URF was measured and IC50 was estimated as described above. All tests were carried out in triplicate. Miltefosine was used as the reference drug.
# [5] = Cytotoxicity assay on macrophages (resazurin); format: cell-based, murine; settings: mouse, J774 macrophages, Table S2; 24 h exposure; read-out: Toxicity against J774 macrophages CC50
# Method: as §3, §4
# [6] = Mycobacterium tuberculosis, Table S1, Mtb H37Rv, read-out: IC50, antibacterial activity against Mtb H37Rv
# [7] = Mycobacterium tuberculosis, Table S1, Mtb H37Rv
# [8] = Table S1, Mtb H37Rv, read-out: IC50, antibacterial activity against Mtb H37Rv
# [9] = Mycobacterium tuberculosis, H37Rv strain, read-out: IC50 against Mycobacterium tuberculosis H37Rv
Compound,"IC50 [1, 6] [µM]","IC90 [1, 7] [µM]","IC50 [1, 8] [µM]","IC90 ([1]; Table S1, Mtb H37Rv) [µM]",IC50 [2] [µM],CC50 (J774 murine macrophages; Table S2) [µM],IC50 [3] [µM],further results
"NCC[C@H](O)C(=O)N[C@@H]1C[C@H](N)[C@@H](O[C@H]2O[C@H](CN)[C@@H](O)[C@H](O)[C@H]2O)[C@H](O)[C@H]1O[C@H]1O[C@H](CO)[C@@H](O)[C@H](N)[C@H]1O [Amikacin, reference compound]",0.07,0.08,,,,,,
"COC(=O)CNC(=O)c1c(-c2ccccc2)[n+]([O-])c2ccccc2[n+]1[O-] [Compound 4a, N-(1,4-Dioxide-3-phenylquinoxaline-2-carbonyl)glycine methyl ester]",,,26.3,55.5,171 ± 8.5,850,103 ± 9.8,CC50 (J774 murine macrophages; Table S3): 850 µM; IC50 [4]: 12.6 ± 0.3 µM
COC(=O)CNC(=O)c1c(-c2ccc(OC)cc2)[n+]([O-])c2ccccc2[n+]1[O-] [Compound 4b],,,40.6,69.8,157 ± 7.8,1570,261 ± 7.8,
COC(=O)CNC(=O)c1c(-c2ccc(C(F)(F)F)cc2)[n+]([O-])c2ccccc2[n+]1[O-] [Compound 4c],,,13.2,25.9,> 238,6960,> 238,activity against L. amazonensis (in words) [2]: inactive; activity against L. donovani (in words) [3]: inactive
"COc1ccc2c(c1)[n+]([O-])c(-c1ccccc1)c(C(=O)NCC(=O)OCc1ccccc1)[n+]2[O-] [Compound 4f, N-(6-Methoxy-1,4-dioxide-3-(phenyl)quinoxaline-2-carbonyl)glycine benzyl ester]",,,21.9,47.9,> 261,,> 261,activity against L. amazonensis (in words) [2]: inactive; activity against L. donovani (in words) [3]: inactive
"COC(=O)CNC(=O)c1c(-c2ccc(C)cc2)[n+]([O-])c2cc(OC)ccc2[n+]1[O-] [Compound 4j, N-(6-Methoxy-1,4-dioxide-3-(4-methylphenyl)quinoxaline-2-carbonyl)glycine methyl ester]",12.9,24.6,,,,,,IC50 ([2]; Leishmania amazonensis): 111 ± 4 µM; L. amazonensis promastigote selectivity index (SI) [2]: 2.9; CC50 at 24 h [5]: 318.6 ± 0.84 µM; IC50 ([3]; Leishmania donovani): 13.8 ± 9.5 µM; L. donovani promastigote selectivity index (SI) ([3]; SI = CC50 (J774 macrophages)/IC50): 23.2
"COC(=O)CNC(=O)c1c(-c2ccc(C(F)(F)F)cc2)[n+]([O-])c2cc(C)ccc2[n+]1[O-] [Compound 4l, N-(6-Methyl-1,4-dioxide-3-(4-trifluoromethylphenyl)quinoxaline-2-carbonyl)glycine methyl ester]",,,7.2,15.5,> 230,1380,,activity against L. amazonensis (in words) [2]: inactive; activity against L. donovani (in words) [3]: inactive
"COC(=O)CNC(=O)c1c(-c2ccccc2)[n+]([O-])c2cc(C(F)(F)F)ccc2[n+]1[O-] [Compound 4n, N-(1,4-Dioxide-6-trifluoromethyl-3-phenylquinoxaline-2-carbonyl)glycine methyl ester]",,,11.9,27.9,97.3 ± 4.3,191 ± 29.3,43.5 ± 1.1,
"O=C(O)CNC(=O)c1c(-c2ccc(F)cc2)[n+]([O-])c2ccccc2[n+]1[O-] [Compound 5d, 2-((Carboxymethyl)carbamoyl)-3-(4-fluorophenyl)quinoxaline 1,4-dioxide]",,,,,,,,IC50 ([2]; Leishmania amazonensis): > 280 µM; L. amazonensis promastigote selectivity index (SI) [2]: > 3.0; CC50 at 24 h [5]: 840 µM; IC50 ([3]; Leishmania donovani): > 280 µM
"COc1ccc2c(c1)[n+]([O-])c(-c1ccccc1)c(C(=O)NCC(=O)O)[n+]2[O-] [Compound 5f, 2-((Carboxymethyl)carbamoyl)-6-methoxy-3-phenylquinoxaline 1,4-dioxide]",4.28,9.86,,,,,,IC50 ([2]; Leishmania amazonensis): > 271 µM; L. amazonensis promastigote selectivity index (SI) [2]: > 30; CC50 at 24 h [5]: 8130 µM; IC50 ([3]; Leishmania donovani): > 271 µM
"N[C@@H]1CON=C1O [Cycloserine, reference compound]",,13.5,,,,,,"IC50 [1, 9]: 12.5 µM"
"CC[C@@H](CO)NCCN[C@@H](CC)CO [Ethambutol, reference compound]",1.56,32.8,,,,,,
"NNC(=O)c1ccncc1 [Isoniazid, reference compound]",0.18,0.29,,,,,,
"CCc1nc(N)nc(N)c1-c1ccc(Cl)cc1 [Pyrimethamine, reference compound]",,75,,,,,,"IC50 [1, 9]: 37.4 µM"
"N-(1,4-Dioxide-3-((4,5-dimethoxy-2-nitro-phenyl)quinoxaline-2-carbonyl)glycine benzyl ester [Compound 4e]",,,25.2,47.9,25.1 ± 0.56,18.5 ± 3.4,34 ± 5.2,toxicity to macrophages (in words) (J774 murine macrophages): highly toxic to macrophages
